From publication PMC5890335 (Journal of immunology (Baltimore, Md. : 1950), 2018)

How the values were obtained:
[1] = target: H2-D^d MHC-I molecule (Mus musculus, UniProt P01900); test: Peptide induction of surface H2-D^d expression on RMAS-D^d cells; format: cell-based; details: fluorescence index, ANOVA, compared with s.p.VV10, Fig 4c
[2] = target: H2-D^d MHC-I molecule on RMAS-D^d cells (mouse); test: flow cytometry on cells
Chain of H2-D^d MHC-I molecule on RMAS-D^d cells (mouse) (P01900 25-365): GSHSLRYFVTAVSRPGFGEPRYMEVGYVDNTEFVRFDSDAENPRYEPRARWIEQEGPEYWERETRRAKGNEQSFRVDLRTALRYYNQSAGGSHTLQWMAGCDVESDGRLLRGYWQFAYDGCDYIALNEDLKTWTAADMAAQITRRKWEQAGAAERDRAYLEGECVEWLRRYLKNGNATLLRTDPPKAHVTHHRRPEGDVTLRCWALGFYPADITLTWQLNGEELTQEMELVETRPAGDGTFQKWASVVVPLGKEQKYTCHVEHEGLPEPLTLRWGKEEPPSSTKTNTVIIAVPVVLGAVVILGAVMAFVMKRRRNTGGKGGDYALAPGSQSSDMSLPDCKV

Chain of H2-D^d MHC-I molecule (P01900 whole entry, looked up): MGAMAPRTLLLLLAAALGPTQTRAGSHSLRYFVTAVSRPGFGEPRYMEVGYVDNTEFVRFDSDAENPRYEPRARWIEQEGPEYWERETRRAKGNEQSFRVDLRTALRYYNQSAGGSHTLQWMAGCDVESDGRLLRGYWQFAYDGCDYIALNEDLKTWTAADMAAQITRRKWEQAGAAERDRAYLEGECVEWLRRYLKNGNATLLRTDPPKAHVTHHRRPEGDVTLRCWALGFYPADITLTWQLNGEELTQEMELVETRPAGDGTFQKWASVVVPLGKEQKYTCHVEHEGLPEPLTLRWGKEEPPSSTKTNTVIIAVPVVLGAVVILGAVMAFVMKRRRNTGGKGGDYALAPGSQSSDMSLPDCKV

IGPGRAFYV [s.p.V9] was tested, and the “comparison of H2-D^d binding titration curves of the 9-mer peptides” value [1] was “do not differ from each other”.

“s.p.TT10 (…), minimal V3 epitope of HIV-1MN gp120, gp120 314-323 (peptide)” showed an FI0.5 (peptide concentration giving a 50% increase in H2-D^d surface expression) [2] of 1 µg/mL.

IGPGRAFYT [s.p.T9] was tested, and the “comparison of H2-D^d binding titration curves of the 9-mer peptides” value [1] was “do not differ from each other”.

B1: s.p.VV10 (…) (peptide)
peptide: IGPGRAFYVV
B1 showed an FI0.5 (peptide concentration giving a 50% increase in H2-D^d surface expression) [2] of 1 µg/mL.
